Values quoted from earlier work, collected in US20210220376A1, “ADDICTION TREATMENT OF AN ALCOHOL-CONSUMING PATIENT POPULATION” (Amygdala Neurosciences, Inc., priority 2018, published 2021).

Columns and labels:
[1] = target: T1, human ALDH-2 enzyme (Homo sapiens, UniProt P05091); details: read-out: IC50 ALDH-2; cited from earlier work
T1 sequence (P05091 18-517): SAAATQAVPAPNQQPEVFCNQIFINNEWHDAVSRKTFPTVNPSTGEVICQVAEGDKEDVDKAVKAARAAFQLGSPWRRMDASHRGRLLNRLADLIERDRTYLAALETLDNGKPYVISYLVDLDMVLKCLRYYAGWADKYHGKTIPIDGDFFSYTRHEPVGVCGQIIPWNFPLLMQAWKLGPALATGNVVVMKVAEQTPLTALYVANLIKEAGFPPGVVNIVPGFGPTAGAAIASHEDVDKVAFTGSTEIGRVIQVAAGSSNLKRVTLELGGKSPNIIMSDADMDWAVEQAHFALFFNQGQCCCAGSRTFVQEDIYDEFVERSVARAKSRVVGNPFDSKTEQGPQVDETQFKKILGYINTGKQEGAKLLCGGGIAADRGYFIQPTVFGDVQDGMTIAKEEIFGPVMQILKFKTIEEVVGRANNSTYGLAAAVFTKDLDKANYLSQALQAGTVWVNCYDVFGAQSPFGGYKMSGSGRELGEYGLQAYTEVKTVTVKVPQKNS

[2] = target: T2, hMAO-B (Homo sapiens, UniProt P27338); details: read-out: IC50 hMAO-B; cited from earlier work
T2 sequence (P27338 1-520): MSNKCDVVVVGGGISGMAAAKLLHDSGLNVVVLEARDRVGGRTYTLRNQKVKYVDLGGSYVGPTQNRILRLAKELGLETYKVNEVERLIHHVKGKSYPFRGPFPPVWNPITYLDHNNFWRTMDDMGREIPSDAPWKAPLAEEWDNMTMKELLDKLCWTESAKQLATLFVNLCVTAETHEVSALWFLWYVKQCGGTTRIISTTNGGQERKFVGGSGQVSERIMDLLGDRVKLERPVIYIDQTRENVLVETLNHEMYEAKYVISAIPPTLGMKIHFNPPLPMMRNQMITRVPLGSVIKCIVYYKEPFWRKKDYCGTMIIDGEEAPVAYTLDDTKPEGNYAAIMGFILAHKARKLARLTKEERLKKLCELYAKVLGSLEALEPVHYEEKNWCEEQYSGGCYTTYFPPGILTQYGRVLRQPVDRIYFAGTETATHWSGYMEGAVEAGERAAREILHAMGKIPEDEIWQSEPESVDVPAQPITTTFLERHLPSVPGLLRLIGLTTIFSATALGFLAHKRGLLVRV

## O=C(NCc1ccc(-c2ccn(COP(=O)(O)O)c(=O)c2)cc1)c1c(Cl)cccc1Cl [Compound (2), phosphoric acid mono-(4-{4-[(2,6-dichloro-benzoylamino)-methyl]-phenyl}-2-oxo-2H-pyridin-1-ylmethyl) ester]
[1]
  IC50: > 10 µM
[2]
  IC50: > 130 µM
